From article PMC3197600 (PLoS Pathogens, 2011)

What was measured:
Assay in all cases: biochemical
[1] = molecular target: p57N2 (pandemic A/RI/5+/1957 H2N2 N2 neuraminidase) (Influenza A virus, UniProt Q194T1); design: species or system influenza A virus A/RI/5+/1957 H2N2
[2] = molecular target: p09N1 (pH1N1 N1 neuraminidase) (Influenza A virus (A/California/04/2009(H1N1)), UniProt C3W5S3); design: species or system 2009 pandemic influenza A H1N1 virus
[3] = molecular target: N5 (avian H12N5 neuraminidase) (Influenza A virus (A/duck/Alberta/60/1976(H12N5)), UniProt A1ILL9)

Compound	IC50 [1] [nM]	IC50 [2] [nM]	IC50 [3] [nM]
[H]/N=C(\N)N[C@H]1C=C(C(=O)O)O[C@@H]([C@H](OC)[C@H](O)COC(=O)CCCCCCC)[C@@H]1NC(C)=O [CS-8958, laninamivir octanoate]	129	947	389
CO[C@@H]([C@@H]1OC(C(=O)O)=C[C@H](NC(=N)N)[C@H]1NC(C)=O)[C@H](O)CO [laninamivir]	3.12		0.9
CCOC(=O)C1=C[C@@H](OC(CC)CC)[C@H](NC(C)=O)[C@@H](N)C1 [oseltamivir]	0.79		0.83
